According to the supplement of paper PMC5579334:
± gives the standard deviation of the averaged measurements.

Legend:
[1] = tested on: HSC1 (primary human Schwann cells); test: drug sensitivity score (DSS, CellTiter-Glo viability, 72 h) (DSS (dimensionless)); higher = more sensitive; extreme values may be limits of the assay
Method in brief: (§1)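 For this screen, 384-well plates were preprinted with each compound at five concentrations in 10-fold steps and seeded with MPNST cell lines or primary human Schwann cells at 750–1000 cells per well. Incubation lasted 72 h at 37 °C, 5% CO2, and CellTiter-Glo ATP luminescence, scaled between vehicle and positive-control wells and averaged over duplicates where available, served as viability. Logistic fits with four parameters were applied. Relative IC50 (censored at the top concentration) and drug sensitivity score derive from these fits, and percent inhibition is at the top concentration.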

[2] = tested on: HSC2 (primary human Schwann cells); test: as above
Method in brief: as §1

[3] = tested on: YST-1; test: as above
Method in brief: as §1

[4] = tested on: S462; test: as above
Method in brief: as §1

[5] = tested on: S1507-2; test: as above
Method in brief: as §1

[6] = tested on: HS-Sch-2; test: as above
Method in brief: as §1

[7] = tested on: HS-PSS; test: as above
Method in brief: as §1

[8] = tested on: STS26T; test: as above
Method in brief: as §1

[9] = tested on: ST8814; test: as above
Method in brief: as §1

[10] = tested on: HSC1 (primary human Schwann cells); test: drug sensitivity score (DSS, CellTox-Green cytotoxicity, 72 h) (DSS (dimensionless)); higher = more cytotoxic; extreme values may be limits of the assay
Method in brief: (§2)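 MPNST cell lines and primary human Schwann cells were grown for 72 h at 37 °C in 384-well plates containing five 10-fold compound dilutions. CellTox-Green, added before seeding at a final 1:1000 dilution, gave fluorescence from DNA released by disrupted cells, and signals were scaled to vehicle and positive-control wells. Curves were fitted with a four-parameter logistic model. Drug sensitivity score and relative IC50 come from these fits, with IC50 censored at the top concentration.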

[11] = tested on: HSC2 (primary human Schwann cells); test: as above
Method in brief: as §2

[12] = tested on: S1507-2; test: as above
Method in brief: as §2

[13] = tested on: HS-PSS; test: as above
Method in brief: as §2

[14] = tested on: STS26T; test: as above
Method in brief: as §2

[15] = tested on: ST8814; test: as above
Method in brief: as §2

[16] = tested on: HSC1 (primary human Schwann cells); test: % inhibition of CellTiter-Glo viability at highest tested concentration (72 h), relative to DMSO and benzethonium chloride controls; higher = more inhibition
Method in brief: as §1

[17] = tested on: HSC2 (primary human Schwann cells); test: as above
Method in brief: as §1

[18] = tested on: YST-1; test: as above
Method in brief: as §1

[19] = tested on: S462; test: as above
Method in brief: as §1

[20] = tested on: S1507-2; test: as above
Method in brief: as §1

[21] = tested on: HS-Sch-2; test: as above
Method in brief: as §1

[22] = tested on: HS-PSS; test: as above
Method in brief: as §1

[23] = tested on: STS26T; test: as above
Method in brief: as §1

[24] = tested on: ST8814; test: as above
Method in brief: as §1

Row | Structure (SMILES) | drug sensitivity score [1] | drug sensitivity score [2] | drug sensitivity score [3] | drug sensitivity score [4] | drug sensitivity score [5] | drug sensitivity score [6] | drug sensitivity score [7] | drug sensitivity score [8] | drug sensitivity score [9] | drug sensitivity score [10] | drug sensitivity score [11] | drug sensitivity score [12] | drug sensitivity score [13] | drug sensitivity score [14] | drug sensitivity score [15] | % inhibition [16] | % inhibition [17] | % inhibition [18] | % inhibition [19] | % inhibition [20] | % inhibition [21] | % inhibition [22] | % inhibition [23] | % inhibition [24]
1 | Cc1c(N)nc([C@H](CC(N)=O)NC[C@H](N)C(N)=O)nc1C(=O)N[C@H](C(=O)N[C@H](C)[C@@H](O)[C@H](C)C(=O)N[C@H](C(=O)NCCc1nc(-c2nc(C(=O)NCCC[S+](C)C)cs2)cs1)[C@@H](C)O)[C@@H](O[C@@H]1O[C@@H](CO)[C@@H](O)[C@H](O)[C@@H]1O[C@H]1O[C@H](CO)[C@@H](O)[C@H](OC(N)=O)[C@@H]1O)c1c[nH]cn1 [Bleomycin] (max concentration tested 10000 nM) | 6.33 | 8.81 | 10.9 | 5 ± 1.1 | 2.36 ± 0.43 | 8.47 | 5.94 | 5.46 | 4.1 | 0 | 1.66 | 1.29 ± 0.61 | 0.34 | 4.43 | 2.35 | 50.4% | 54.5% | 79.5% | 68.4 ± 1.7% | 29.9 ± 7.5% | 72.1% | 53.2% | 62.1% | 46.4%
2 | CC(C)C[C@H](NC(=O)[C@H](Cc1ccccc1)NC(=O)c1cnccn1)B(O)O [Bortezomib] (max concentration tested 1000 nM) | 25.6 | 25.7 | 24.2 | 27.4 ± 0.87 | 24.458 ± 0.016 | 30 | 14.4 | 23.7 | 26.3 | 19.8 | 20.1 | 30.1 ± 4.9 | 7.75 | 23.5 | 24.3 | 101% | 102% | 100% | 102.5 ± 0.77% | 103.6 ± 0.17% | 101% | 93.5% | 102% | 103%
3 | COc1cc(Nc2c(C#N)cnc3cc(OCCCN4CCN(C)CC4)c(OC)cc23)c(Cl)cc1Cl [Bosutinib] (max concentration tested 10000 nM) | 7.12 | 9.52 | 6.63 | 9.09 ± 1.4 | 9.52 ± 0.072 | 9.19 | 5.17 | 9.81 | 9.35 | 1.14 | 3.59 | 6.25 ± 1.3 | 5.37 | 5.46 | 7.01 | 80% | 86% | 100% | 94.85 ± 0.58% | 96.4 ± 2% | 100% | 99.8% | 95.4% | 96.5%
4 | Cc1cc2c(F)c(Oc3ncnn4cc(OC[C@@H](C)O)c(C)c34)ccc2[nH]1 [Brivanib] (max concentration tested 1000 nM) | 0 | 0 | 0 | 0 | 0 | 0 | 0 | 0 | 0 | 0 | 0 | 0 | 0 | 0 | 0 | -5.58% | -0.326% | 0.09% | 3.36 ± 7.5% | -1.44 ± 10% | -0.92% | -3.58% | 4.35% | -1.65%
5 | CCC/C=C/C=C/C(=O)O[C@H]1/C(=C/C(=O)OC)C[C@H]2C[C@H]([C@@H](C)O)OC(=O)C[C@H](O)C[C@@H]3C[C@H](OC(C)=O)C(C)(C)[C@](O)(C[C@@H]4C/C(=C/C(=O)OC)C[C@H](/C=C/C(C)(C)[C@]1(O)O2)O4)O3 [Bryostatin 1] (max concentration tested 100 nM) | 0 | 0 | 0 | 1.37 ± 0.77 | 0.762 ± 1.1 | 7.06 | 1.21 | 2.82 | 0 | 0 | 0 | 2.29 ± 3.2 | 0 | 0 | 0 | -11.5% | -14.2% | 7.32% | 24.9 ± 3.1% | 21.1 ± 2.6% | 19.4% | 11.2% | 20.4% | -11.8%
6 | Nc1cc(C(F)(F)F)c(-c2cc(N3CCOCC3)nc(N3CCOCC3)n2)cn1 [Buparlisib] (max concentration tested 10000 nM) | 6.85 | 7.01 | 12.1 | 8.35 ± 0.34 | 8.72 ± 0.83 | 8.73 | 6.19 | 9.07 | 8.12 | 5.07 | 7.46 | 5.23 ± 2.9 | 0 | 8.28 | 4.69 | 85.1% | 88.1% | 95.3% | 97.02 ± 0.16% | 88.421 ± 0.034% | 95.2% | 70.9% | 96.8% | 90.9%
7 | CS(=O)(=O)OCCCCOS(C)(=O)=O [Busulfan] (max concentration tested 100000 nM) | 0 | 0 | 2.32 | 0 | 0 | 0.72 | 0 | 0 | 0 | 0 | 0 | 0 | 0 | 0 | 0 | 8.68% | -3.16% | 22.8% | -16.5 ± 19% | -7.23 ± 18% | 17.2% | 0.44% | 3.36% | 0.917%
8 | CC1=NN(c2ccc(C(=O)O)cc2)C(=O)C1=Cc1ccc(-c2cc(C)c(C)cc2[N+](=O)[O-])o1 [C646] (max concentration tested 25000 nM) | 0 | 0 | 0.68 | 0.301 ± 0.43 | 0.311 ± 0.44 | 0 | 0.34 | 0 | 0 | 0 | 1.71 | 2.69 ± 3.8 | 0 | 0 | 0 | -3.92% | -4.28% | 19.6% | 1.13 ± 8.9% | 9.84 ± 4.1% | -1.27% | 17.2% | 1.97% | 3.46%
9 | O=C(O)CCCCC(CCSCc1ccccc1)SCc1ccccc1 (configuration not stated) [CPI-613] (max concentration tested 10000 nM) | 0 | 0 | 0.06 | 0 | 0 | 0 | 0.36 | 0 | 0 | 0 | 0 | 0.502 ± 0.71 | 0 | 0 | 0 | -3.11% | -1.05% | 14.3% | -9.93 ± 9.6% | -8.09 ± 10% | -6.28% | 17% | -2.54% | 0.691%
10 | C#Cc1cccc(Nc2ncnc3cc(OC)c(OCCCCCCC(=O)NO)cc23)c1 [CUDC-101] (max concentration tested 10000 nM) | 15.8 | 15 | 20.8 | 13.3 ± 1.8 | 11.9 ± 0.6 | 15.7 | 12.6 | 8.5 | 12.3 | 11 | 11.8 | 9.97 ± 2.9 | 6.98 | 6 | 9.2 | 102% | 102% | 99.1% | 102.2 ± 0.43% | 103 ± 1.6% | 101% | 95% | 100% | 102%
11 | COc1cc2nccc(Oc3ccc(NC(=O)C4(C(=O)Nc5ccc(F)cc5)CC4)cc3)c2cc1OC [Cabozantinib] (max concentration tested 1000 nM) | 0.225 | 0 | 0 | 0.552 ± 0.78 | 4.78 ± 0.14 | 0.13 | 1.89 | 0.238 | 2.2 | 0 | 0 | 0 | 0 | 0 | 0 | 13.2% | 8.9% | 0.14% | 14 ± 4.9% | 27.7 ± 7.5% | 10.9% | 23% | 13.4% | 21.3%
12 | C=CC(=O)Nc1cc2c(Nc3ccc(F)c(Cl)c3)ncnc2cc1OCCCN1CCOCC1 [Canertinib] (max concentration tested 10000 nM) | 8.87 | 7.63 | 5.36 | 6.03 ± 1 | 7.98 ± 0.98 | 6.37 | 6.16 | 7.19 | 8.06 | 7.58 | 8 | 5.1 ± 0.58 | 3.38 | 4.76 | 4.72 | 96.6% | 96.2% | 96.3% | 96.1 ± 0.97% | 87.9 ± 0.97% | 94.2% | 88.7% | 96.5% | 96.3%
13 | CCCCCOC(=O)Nc1nc(=O)n([C@@H]2O[C@H](C)[C@@H](O)[C@H]2O)cc1F [Capecitabine] (max concentration tested 10000 nM) | 0 | 0 | 0 | 0 | 0 | 0 | 0 | 0.0023 | 0 | 0 | 0 | 0 | 0 | 0 | 0 | 1.09% | -3.4% | -6.84% | -4.78 ± 2.1% | 5.66 ± 1.9% | -4.92% | -4.86% | 12% | -8.14%
